{"source": "patent US20030181436A1", "about": "“Treatment for AIDS, HIV, and other related diseases and compounds for use therewith” (priority 2001, published 2003)", "format_in_all_cases": "cell-based", "key": {"HIV": {"test_system": "HIV", "assay": "HeLa CD4 LTR β-gal time of addition assay", "conditions": "single round, high M.O.I.", "text": "This time of addition assay measures reproducible events from initial virus binding to the trans activation of the β-galactosidase reporter by newly produced Tat protein. This is a single round of infection assay and is thus “cleaner” and more “precise” than a multi-round time of addition assay. […] Since it is hypothesized that the K and Z compounds work by interfering with virus transcription the later possibility seems more likely. Thus the use of a time of addition assay with PBMCs was utilized."}, "HeLa CD4 LTR β-gal cells": {"test_system": "HeLa CD4 LTR β-gal cells", "assay": "Cytotoxicity for HeLa CD4 LTR β-gal cells", "conditions": "initial testing", "procedure": "(§1) At assay termination the assay plates were stained with the soluble tetrazolium-based dye MTS (CellTiter® Reagent, Promega) to determined cell viability and quantify compound toxicity. […] At termination of the assay 20 μL of MTS reagent was added per well. The wells were incubated for 4 h at 37° C., 5% CO2. Adhesive plate scalers were used in place of the lids, the sealed plate was inverted several times to mix the soluble formazan product and the plate was read spectrophotometrically at 490 nm with a 650 nm reference wavelength on a Molecular Devices Vmax plate reader.\nThis cell line represents one of 3 standard models for performing time of addition assays."}, "U1 cells": {"test_system": "U1 cells", "assay": "U1 assay, compound toxicity by MTS dye reduction", "conditions": "exp 2", "procedure": "as §1\n(§2) U1 and ACH-2 cells were obtained from the AIDS Research and Reference Reagent Program and maintained under standard culture conditions in RPMI 1640 supplemented with 10% fetal bovine serum (heat inactivated), supplemented with 2 mM […], 100U/ml penicillin and 100 μg/ml, streptomycin. U1 cells were derived from the histocytic leukemia cell line U937, and contain a single integrated copy (HIV IIIB) […] a cytokine and/or phorbol inducible provirus. ACH-2 cells are derived from the A3.01 T lymphoblastic cell line, and contain 2 copies of the HIV IIIB provirus, however only one is cytokine and/or phorbol inducible. Cultures were maintained in such a way as to ensure exponential growth of the populations. At the time of the assay, cells were collected by centrifugation and counted by hemacytometer. If cell viability by Trypan Blue dye exclusion was less than 70% the assay was terminated. The cells were adjusted to 5×10^4 cells/mL and 100 μL, placed in 96 well plates with 100 μL media containing a final concentration of […] TNFα and the test compound. Cultures were incubated for 3 days and supernatants harvested. Compound toxicity was determined by MTS dye reduction. Virus expression was measured by supernatant reverse transcriptasc activity."}, "[1]": {"test_system": "TNFα induced ACH-2 cells (HIV IIIB provirus)", "assay": "ACH-2 latent infection assay, supernatant reverse transcriptase activity", "set-up": "% VC (percent of virus control): unit not given here", "conditions": "exp 2", "procedure": "as §2\nReverse transcriptase activity was measured in cell-free supernatants. Tritiated thymidine triphosphate (NEN) (TTP) was resuspended in distilled H2O at 5 Ci/mL. Poly rA and oligo dT were prepared as a stock solution which was kept at −20° C. The RT reaction buffer was prepared fresh on a daily basis and consists of 125 μL 1.0 M EGTA, 125 μL dH2O, 110 μL 10% SDS, 50 μL 1.0 M Tris (pH 7.4), 50 μL, 1.0 M DTT, and 40 μL 1.0 M MgCl2. These three solutions were mixed together in a ratio of 2 parts TTP, 1 part poly rA:oligo dT, and 1 part reaction buffer. Ten microliters of this reaction mixture was placed in a round bottom microtiter plate and 15 μL of virus containing supernatant was added and mixed. The plate was incubated at 37° C. in a water bath with a solid support to prevent submersion of the plate and incubated for 60 minutes. Following reaction, the reaction volume was spotted onto pieces of DE81 paper, washed 5 times for 5 minutes each in a 5% sodium phosphate buffer, 2 times for 1 minute each in distilled water, 2 times for 1 minute each in 70% ethanol, and then dried. Opti-Fluor O was added to each sample and incorporated radioactivity was quantitated utilizing a Wallac 1450 Microbetaplus liquid scintillation counter."}}, "data": [{"substance": "Potassium Iodiscorbate [Compound K]", "values": [{"measurement": "inhibition of HIV replication", "setting": "HIV", "result": "failed to inhibit"}, {"measurement": "cytotoxic effects on the HeLa CD4 LTR β-gal cells", "setting": "HeLa CD4 LTR β-gal cells", "result": "no significant cytotoxic effects"}, {"measurement": "% CC", "setting": "U1 cells; 0.00063 μM", "result": 118.9, "unit": "%"}, {"measurement": "TOXICITY VALUES (MTS) MEAN", "setting": "U1 cells; 0.00063 μM", "result": 1.546, "unit": "O. D."}, {"measurement": "% CC", "setting": "U1 cells; 0.002 μM", "result": 119.4, "unit": "%"}, {"measurement": "TOXICITY VALUES (MTS) MEAN", "setting": "U1 cells; 0.002 μM", "result": 1.553, "unit": "O. D."}, {"measurement": "% CC", "setting": "U1 cells; 0.00625 μM", "result": 97.8, "unit": "%"}, {"measurement": "TOXICITY VALUES (MTS) MEAN", "setting": "U1 cells; 0.00625 μM", "result": 1.271, "unit": "O. D."}, {"measurement": "% CC", "setting": "U1 cells; 0.0625 μM", "result": 94.0, "unit": "%"}, {"measurement": "TOXICITY VALUES (MTS) MEAN", "setting": "U1 cells; 0.0625 μM", "result": 1.222, "unit": "O. D."}, {"measurement": "% CC", "setting": "U1 cells; 0.2 μM [c7]", "result": 84.8, "unit": "%"}, {"measurement": "TOXICITY VALUES (MTS) MEAN", "setting": "U1 cells; 0.2 μM [c7]", "result": 1.103, "unit": "O. D."}, {"measurement": "% CC", "setting": "U1 cells; 0.2 μM [c9]", "result": 101.5, "unit": "%"}, {"measurement": "TOXICITY VALUES (MTS) MEAN", "setting": "U1 cells; 0.2 μM [c9]", "result": 1.320, "unit": "O. D."}, {"measurement": "% CC", "setting": "U1 cells; 0.625 μM", "result": 93.4, "unit": "%"}, {"measurement": "TOXICITY VALUES (MTS) MEAN", "setting": "U1 cells; 0.625 μM", "result": 1.214, "unit": "O. D."}, {"measurement": "% CC", "setting": "U1 cells; 2 μM", "result": 89.1, "unit": "%"}, {"measurement": "TOXICITY VALUES (MTS) MEAN", "setting": "U1 cells; 2 μM", "result": 1.158, "unit": "O. D."}, {"measurement": "% CC", "setting": "U1 cells; 6.25 μM", "result": 83.3, "unit": "%"}, {"measurement": "TOXICITY VALUES (MTS) MEAN", "setting": "U1 cells; 6.25 μM", "result": 1.083, "unit": "O. D."}, {"measurement": "% CC", "setting": "U1 cells; 20 μM", "result": 70.3, "unit": "%"}, {"measurement": "TOXICITY VALUES (MTS) MEAN", "setting": "U1 cells; 20 μM", "result": 0.913, "unit": "O. D."}, {"measurement": "% CC", "setting": "U1 cells; 62.5 μM", "result": 80.8, "unit": "%"}, {"measurement": "TOXICITY VALUES (MTS) MEAN", "setting": "U1 cells; 62.5 μM", "result": 1.050, "unit": "O. D."}, {"measurement": "% CC", "setting": "U1 cells; 200 μM", "result": 26.3, "unit": "%"}, {"measurement": "TOXICITY VALUES (MTS) MEAN", "setting": "U1 cells; 200 μM", "result": 0.341, "unit": "O. D."}, {"measurement": "% VC (percent of virus control)", "setting": "[1]; 0.00063 uM", "result": 114.4}, {"measurement": "RT ACTIVITY (cpm) MEAN", "setting": "[1]; 0.00063 uM", "result": 22470, "unit": "cpm"}, {"measurement": "% VC (percent of virus control)", "setting": "[1]; 0.002 uM", "result": 98.0}, {"measurement": "RT ACTIVITY (cpm) MEAN", "setting": "[1]; 0.002 uM", "result": 19246, "unit": "cpm"}, {"measurement": "% VC (percent of virus control)", "setting": "[1]; 0.00625 uM", "result": 105.2}, {"measurement": "RT ACTIVITY (cpm) MEAN", "setting": "[1]; 0.00625 uM", "result": 20672, "unit": "cpm"}, {"measurement": "% VC (percent of virus control)", "setting": "[1]; 0.02 uM", "result": 125.7}, {"measurement": "RT ACTIVITY (cpm) MEAN", "setting": "[1]; 0.02 uM", "result": 24682, "unit": "cpm"}, {"measurement": "% VC (percent of virus control)", "setting": "[1]; 0.0625 uM", "result": 119.1}, {"measurement": "RT ACTIVITY (cpm) MEAN", "setting": "[1]; 0.0625 uM", "result": 23403, "unit": "cpm"}, {"measurement": "% VC (percent of virus control)", "setting": "[1]; 0.2 uM", "result": 115.0}, {"measurement": "RT ACTIVITY (cpm) MEAN", "setting": "[1]; 0.2 uM", "result": 22593, "unit": "cpm"}, {"measurement": "% VC (percent of virus control)", "setting": "[1]; 0.625 uM", "result": 97.7}, {"measurement": "RT ACTIVITY (cpm) MEAN", "setting": "[1]; 0.625 uM", "result": 19189, "unit": "cpm"}, {"measurement": "% VC (percent of virus control)", "setting": "[1]; 2 uM", "result": 93.6}, {"measurement": "RT ACTIVITY (cpm) MEAN", "setting": "[1]; 2 uM", "result": 18381, "unit": "cpm"}, {"measurement": "% VC (percent of virus control)", "setting": "[1]; 6.25 uM", "result": 32.7}, {"measurement": "RT ACTIVITY (cpm) MEAN", "setting": "[1]; 6.25 uM", "result": 6432, "unit": "cpm"}, {"measurement": "% VC (percent of virus control)", "setting": "[1]; 20 uM", "result": 15.3}, {"measurement": "RT ACTIVITY (cpm) MEAN", "setting": "[1]; 20 uM", "result": 3011, "unit": "cpm"}, {"measurement": "% VC (percent of virus control)", "setting": "[1]; 62.5 uM", "result": 0.58}, {"measurement": "RT ACTIVITY (cpm) MEAN", "setting": "[1]; 62.5 uM", "result": 113, "unit": "cpm"}, {"measurement": "% VC (percent of virus control)", "setting": "[1]; 200 uM", "result": 0.55}, {"measurement": "RT ACTIVITY (cpm) MEAN", "setting": "[1]; 200 uM", "result": 108, "unit": "cpm"}]}]}
